Changes are numbered by the printed parent chain.

One test addresses T1, IDH2 R172K (Homo sapiens, UniProt P48735, R172K).
T1 sequence (P48735 40-452 R172K): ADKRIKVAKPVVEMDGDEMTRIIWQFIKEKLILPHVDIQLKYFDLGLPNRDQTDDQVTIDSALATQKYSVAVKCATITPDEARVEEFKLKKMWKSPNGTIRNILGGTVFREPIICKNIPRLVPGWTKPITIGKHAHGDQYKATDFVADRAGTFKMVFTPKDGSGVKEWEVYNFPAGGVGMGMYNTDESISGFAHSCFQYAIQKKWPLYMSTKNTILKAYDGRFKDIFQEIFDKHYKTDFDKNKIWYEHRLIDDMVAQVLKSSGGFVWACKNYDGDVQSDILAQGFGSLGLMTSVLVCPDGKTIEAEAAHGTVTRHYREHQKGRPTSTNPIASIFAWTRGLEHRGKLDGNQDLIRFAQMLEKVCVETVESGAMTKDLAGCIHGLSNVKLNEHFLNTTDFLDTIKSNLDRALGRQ
Nature of the test: IDH2 R172K enzymatic assay (NADPH cofactor depletion, diaphorase/resazurin readout). It is filed as biochemical. The note with it: read-out: Enz R172K. The procedure, abridged:
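Test compounds are incubated with the mutant enzyme for one hour at ambient temperature. A substrate mix of 50 μM NADPH plus 6.3 mM α-KG initiates turnover, which proceeds for one hour. Diaphorase and resazurin then halt the reaction by depleting the cofactor and convert the remaining NADPH into a fluorescent signal.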
Background: The colour change of resazurin is a common sign of viable cells or microbes.

The subject of test [1] is U87MG pLVX-IDH2 R140Q-neo cells. In words: U87MG pLVX-IDH2 R140Q-neo cell based assay, 2-HG in media by LC-MS at 48 hours. To be noted: Homo sapiens, U-87 MG. The essentials: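 U87MG cells stably expressing IDH2 R140Q were seeded overnight, then exposed to compound at 0.2% final DMSO at 37 °C, 5% CO2. 2-HG in the medium was quantified by LC-MS at 48 h. Growth inhibition was read by CellTiter-Glo luminescence at 72 h.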

Another test deals with T2, IDH2 R140Q (Homo sapiens, UniProt P48735, R140Q).
T2 sequence (P48735 40-452 R140Q): T1 sequence (P48735 40-452 R172K) with R101Q, K133R
In words: IDH2 R140Q enzymatic assay (cofactor depletion, similar format). In kind it is biochemical. To be noted: read-out: Enz R140Q.

As to `N#CC1(c2cc(Nc3nc(NCC4CC4)nc(-c4cccc(C(F)(F)F)n4)n3)ccn2)CC1` [Compound 617, 1-(4-((4-((cyclopropylmethyl)amino)-6-(6-(trifluoromethyl)pyridin-2-yl)-1,3,5-triazin-2-yl)amino)pyridin-2-yl)cyclopropanecarbonitrile], the IC50 on IDH2 R172K is under 100 nM; in test [1], under 100 nM; at IDH2 R140Q it was 100 to 1000 nM.

On to `CC(F)(F)c1cccc(-c2nc(NCC3CC3)nc(Nc3ccnc(C(C)(C)C#N)c3)n2)n1` [Compound 618, (4-((4-((cyclopropylmethyl)amino)-6-(6-(1,1-difluoroethyl)pyridin-2-yl)-1,3,5-triazin-2-yl)amino)pyridin-2-yl)-2-methylpropanenitrile], for which the IC50 was under 100 nM at IDH2 R172K, under 100 nM in test [1] and 100 to 1000 nM at IDH2 R140Q.

On to `CC(F)(F)c1cccc(-c2nc(NCC3CC3)nc(Nc3ccnc(C4(C#N)CC4)c3)n2)n1` [Compound 619, 1-(4-((4-((cyclopropylmethyl)amino)-6-(6-(1,1-difluoroethyl)pyridin-2-yl)-1,3,5-triazin-2-yl)amino)pyridin-2-yl)cyclopropanecarbonitrile], for which the IC50 at IDH2 R172K is under 100 nM; in test [1], under 100 nM; on IDH2 R140Q, 100 to 1000 nM.

Take `CC(C)(O)CNc1nc(Nc2cncc(F)c2)nc(-c2ccccc2F)n1` [Compound 621, 1-(4-(2-fluorophenyl)-6-(5-fluoropyridin-3-ylamino)-1,3,5-triazin-2-ylamino)-2-methylpropan-2-ol]: the IC50 on IDH2 R172K was 1000 to 10000 nM; in test [1] it was 100 to 1000 nM; at IDH2 R140Q, 100 to 1000 nM.

Turning to `CC(C)(O)CNc1nc(Nc2ccc(F)nc2)nc(-c2ccccc2F)n1` [Compound 622, 1-(4-(2-fluorophenyl)-6-(6-fluoropyridin-3-ylamino)-1,3,5-triazin-2-ylamino)-2-methylpropan-2-ol], the IC50 (on IDH2 R172K; in test [1]; at IDH2 R140Q) was 100 to 1000 nM throughout.

With `CC(C)(O)CNc1nc(Nc2ccnc(F)c2)nc(-c2ccccc2F)n1` [Compound 623, 1-(4-(2-fluorophenyl)-6-(2-fluoropyridin-4-ylamino)-1,3,5-triazin-2-ylamino)-2-methylpropan-2-ol], the IC50 at IDH2 R172K lay within 1000 to 10000 nM; in test [1], 100 to 1000 nM; on IDH2 R140Q, 100 to 1000 nM.

On to `COc1cccc(-c2nc(Nc3ccnc(C(F)(F)F)c3)nc(NC3COC3)n2)c1F` [Compound 624, 6-(2-Fluoro-3-methoxy-phenyl)-N-oxetan-3-yl-N′-(2-trifluoromethyl-pyridin-4-yl)-[1,3,5]triazine-2,4-diamine], for which the values for the IC50 (at IDH2 R172K; in test [1]; at IDH2 R140Q) were 100 to 1000 nM, under 100 nM and 100 to 1000 nM, respectively.

For `Fc1cncc(Nc2nc(NC3COC3)nc(-c3ccccc3F)n2)c1` [Compound 625, 6-(2-Fluoro-phenyl)-N-(5-fluoro-pyridin-3-yl)-N′-oxetan-3-yl-[1,3,5]triazine-2,4-diamine], the IC50 was 100 to 1000 nM on IDH2 R172K, under 100 nM in test [1] and under 100 nM on IDH2 R140Q.

On to `Fc1ccc(Nc2nc(NC3COC3)nc(-c3ccccc3F)n2)cn1` [Compound 626, 6-(2-Fluoro-phenyl)-N-(6-fluoro-pyridin-3-yl)-N′-oxetan-3-yl-[1,3,5]triazine-2,4-diamine], for which the IC50 on IDH2 R172K was 1000 to 10000 nM; in test [1] it was 100 to 1000 nM; on IDH2 R140Q, 100 to 1000 nM.

For the compound `Fc1ccccc1-c1nc(Nc2ccnc(C(F)(F)F)c2)nc(NC2COC2)n1` [Compound 627, 6-(2-Fluoro-phenyl)-N-oxetan-3-yl-N′-(2-trifluoromethyl-pyridin-4-yl)-[1,3,5]triazine-2,4-diamine], the IC50 (on IDH2 R172K; in test [1]; at IDH2 R140Q) was under 100 nM throughout.

Regarding `Fc1cc(Nc2nc(NC3COC3)nc(-c3ccccc3F)n2)ccn1` [Compound 628, 6-(2-Fluoro-phenyl)-N-(2-fluoro-pyridin-4-yl)-N′-oxetan-3-yl-[1,3,5]triazine-2,4-diamine], the IC50 on IDH2 R172K is 100 to 1000 nM; in test [1], under 100 nM; at IDH2 R140Q it was under 100 nM.

In the case of `Fc1ccccc1-c1nc(Nc2cncc(C(F)(F)F)c2)nc(NC2COC2)n1` [Compound 629, 6-(2-Fluoro-phenyl)-N-oxetan-3-yl-N′-(5-trifluoromethyl-pyridin-3-yl)-[1,3,5]triazine-2,4-diamine], the IC50 (at IDH2 R172K; in test [1]; on IDH2 R140Q) was under 100 nM throughout.

For `COc1ccc(F)c(-c2nc(Nc3ccnc(C(F)(F)F)c3)nc(NC(C)C)n2)c1` [Compound 630, 6-(2-Fluoro-5-methoxy-phenyl)-N-isopropyl-N′-(2-trifluoromethyl-pyridin-4-yl)-[1,3,5]triazine-2,4-diamine], the IC50 (at IDH2 R172K; in test [1]; at IDH2 R140Q) was under 100 nM throughout.

With `COc1cccc(-c2nc(Nc3ccnc(C(F)(F)F)c3)nc(NC(C)C)n2)c1F` [Compound 631, 6-(2-Fluoro-3-methoxy-phenyl)-N-isopropyl-N′-(2-trifluoromethyl-pyridin-4-yl)-[1,3,5]triazine-2,4-diamine], the IC50 (at IDH2 R172K; in test [1]; at IDH2 R140Q) was under 100 nM in each case.

`CC(C)Nc1nc(Nc2ccnc(C(C)(C)O)c2)nc(-c2ccccc2F)n1` [Compound 632, 2-(4-((4-(2-fluorophenyl)-6-(isopropylamino)-1,3,5-triazin-2-yl)amino)pyridin-2-yl)propan-2-ol]: the figures for the IC50 (on IDH2 R172K; in test [1]; on IDH2 R140Q) were 100 to 1000 nM, under 100 nM and 100 to 1000 nM, respectively.

`CC(C)Nc1nc(Nc2ccnc(C(F)(F)F)c2)nc(-c2cccc(O)c2F)n1` [Compound 633, 2-Fluoro-3-[4-isopropylamino-6-(2-trifluoromethyl-pyridin-4-ylamino)-[1,3,5]triazin-2-yl]-phenol]: the IC50 is under 100 nM at IDH2 R172K, under 100 nM in test [1] and 100 to 1000 nM on IDH2 R140Q.

For `CC(C)Nc1nc(Nc2ccnc(C(F)(F)F)c2)nc(-c2cc(O)ccc2F)n1` [Compound 634, 4-Fluoro-3-[4-isopropylamino-6-(2-trifluoromethyl-pyridin-4-ylamino)-[1,3,5]triazin-2-yl]-phenol], the IC50 on IDH2 R172K was under 100 nM; in test [1], under 100 nM; at IDH2 R140Q it was 100 to 1000 nM.

As for `COc1ccc(F)c(-c2nc(Nc3ccnc(C(F)(F)F)c3)nc(NC3COC3)n2)c1` [Compound 635, 6-(2-Fluoro-5-methoxy-phenyl)-N-oxetan-3-yl-N′-(2-trifluoromethyl-pyridin-4-yl)-[1,3,5]triazine-2,4-diamine], the IC50 (on IDH2 R172K; in test [1]; at IDH2 R140Q) was 100 to 1000 nM throughout.

As for `Fc1cc(Nc2nc(NC3[C@H]4COC[C@@H]34)nc(-c3ccccc3F)n2)ccn1` (stereo partly drawn) [Compound 636, 6-(2-Fluoro-phenyl)-N-(2-fluoro-pyridin-4-yl)-N′-(3-oxa-bicyclo[3.1.6]hex-6-yl)-[1,3,5]triazine-2,4-diamine], the results for the IC50 (on IDH2 R172K; in test [1]; on IDH2 R140Q) were 100 to 1000 nM, under 100 nM and under 100 nM, respectively.

In the case of `Fc1ccc(Nc2nc(NC3[C@H]4COC[C@@H]34)nc(-c3ccccc3F)n2)cn1` (stereo partly drawn) [Compound 637, 6-(2-Fluoro-phenyl)-N-(6-fluoro-pyridin-3-yl)-N′-(3-oxa-bicyclo[3.1.0]hex-6-yl)-[1,3,5]triazine-2,4-diamine], the figures for the IC50 (on IDH2 R172K; in test [1]; at IDH2 R140Q) were 100 to 1000 nM, under 100 nM and 100 to 1000 nM, respectively.

For the compound `Fc1cncc(Nc2nc(NC3[C@H]4COC[C@@H]34)nc(-c3ccccc3F)n2)c1` (stereo partly drawn) [Compound 638, 6-(2-Fluoro-phenyl)-N-(5-fluoro-pyridin-3-yl)-N′-(3-oxa-bicyclo[3.1.0]hex-6-yl)-[1,3,5]triazine-2,4-diamine], the values for the IC50 (on IDH2 R172K; in test [1]; on IDH2 R140Q) were 100 to 1000 nM, under 100 nM and 100 to 1000 nM, respectively.

As for `CC(C)Nc1nc(Nc2ccnc(C(F)(F)F)c2)nc(-c2cccc(CO)c2)n1` [Compound 639, {3-[4-Isopropylamino-6-(2-trifluoromethyl-pyridin-4-ylamino)-[1,3,5]triazin-2-yl]-phenyl}-methanol], the IC50 on IDH2 R172K was under 100 nM; in test [1], under 100 nM; at IDH2 R140Q, 100 to 1000 nM.

Values taken from patent publication US9512107B2, “Therapeutically active compositions and their methods of use” (Agios Pharmaceuticals, Inc., priority 2012, dated 2016).
